The source made the active and inactive calls. No cut-off for these calls is given here. A value given as a limit tells only on which side of the number the result lay.

The test system of assay [1] is NCI-H1299. The experiment in a line: Inhibition of wound healing in human NCI-H1299 cells by IncuCyte live-cell imaging analysis. It is filed as functional, cell-based.
The target of assay [2] is T1, Insulin-like growth factor 2 mRNA-binding protein 1 (Homo sapiens, UniProt Q9NZI8). Briefly: Inhibition of human IGF2BP1 transfected in RKO cells incubated for 24 hrs by split-luciferase assay. Type of assay: cell-based.
The test system of assay [3] is NCI-H1299. Briefly: Inhibition of wound healing in human NCI-H1299 cells at 1.25 to 5 uM by IncuCyte live-cell imaging analysis. Type of assay: functional, cell-based. The note with it: dose 1.25-5 µM.
The test system of assay [4] is LKR-M cell. Briefly: Inhibition of wound healing in mouse LKR-M cells transfected with IGF2BP1 at 5 uM by IncuCyte live-cell imaging analysis. Type of assay: functional, cell-based.
Assay [5] relates to LKR-M cell. The experiment in a line: Inhibition of wound healing in mouse LKR-M cells transfected with GFP at 5 uM by IncuCyte live-cell imaging analysis. It is filed as functional, cell-based.
Assay [6] addresses T1, Insulin-like growth factor 2 mRNA-binding protein 1. The experiment in a line: Binding affinity to recombinant full-length human IGF2BP1 KH34 domain by MST assay.
Assay [7] deals with LKR-M cell. The experiment in a line: Antiproliferative activity against mouse LKR-M cells transfected with GFP-IGF2BP1. Type of assay: functional, cell-based.
In assay [8] the test system is LKR-M cell. Briefly: Antiproliferative activity against mouse LKR-M cells transfected with GFP. Type of assay: functional, cell-based.
Assay [9] concerns LKR-M cell. The experiment in a line: Antiproliferative activity against mouse LKR-M cells transfected with GFP-IGF2BP1 at 1.25 uM. Type of assay: functional, cell-based.
For assay [10], the system named is NCI-H1299. Briefly: Antiproliferative activity against human NCI-H1299 cells. It is filed as functional, cell-based.
The test system of assay [11] is NCI-H1299. Briefly: Antiproliferative activity against human NCI-H1299 cells at 1.25 to 5 uM. The note with it: dose 1.25-5 µM. It is filed as functional, cell-based.
Assay [12] concerns HCT-116. Briefly: Induction of apoptosis in human HCT-116 cells. Type of assay: functional, cell-based. The note with it: dose 2-4 µM.
The subject of assay [13] is SW480. The experiment in a line: Induction of apoptosis in human SW480 cells. Type of assay: functional, cell-based. The note with it: dose 2-4 µM.
A further assay has as its system RKO. The experiment in a line: Induction of apoptosis in human RKO cells. It is filed as functional, cell-based.
Assay [14] has as its system HCT-116. Briefly: Antiproliferative activity against human HCT-116 cells. It is filed as functional, cell-based.
The test system of assay [15] is SW480. Briefly: Inhibition of cell migration in human SW480 cells at 2 uM. It is filed as functional, cell-based.
In assay [16] the test system is SW480. Briefly: Inhibition of cell migration in IGF2BP1 knockout human SW480 cells at 2 uM. Type of assay: functional, cell-based.

T1 sequence (Q9NZI8 whole entry): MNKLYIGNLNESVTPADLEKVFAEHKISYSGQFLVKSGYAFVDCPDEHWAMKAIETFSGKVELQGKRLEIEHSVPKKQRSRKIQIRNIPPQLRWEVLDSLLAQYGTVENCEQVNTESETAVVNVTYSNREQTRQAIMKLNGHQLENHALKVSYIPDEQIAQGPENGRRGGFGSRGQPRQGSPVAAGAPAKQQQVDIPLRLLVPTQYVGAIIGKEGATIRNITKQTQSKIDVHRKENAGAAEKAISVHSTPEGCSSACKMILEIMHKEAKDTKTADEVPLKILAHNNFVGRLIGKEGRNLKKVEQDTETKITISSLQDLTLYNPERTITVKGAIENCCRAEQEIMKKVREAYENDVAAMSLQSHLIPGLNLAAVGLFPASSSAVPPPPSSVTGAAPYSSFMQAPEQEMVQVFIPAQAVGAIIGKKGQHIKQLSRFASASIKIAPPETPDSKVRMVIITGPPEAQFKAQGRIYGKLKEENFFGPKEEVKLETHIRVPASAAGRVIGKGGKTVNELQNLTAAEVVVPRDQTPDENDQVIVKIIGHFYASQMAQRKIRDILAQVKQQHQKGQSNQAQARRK

By IC50 is commonly meant the concentration that gives 50% inhibition. Read a high IC50 as weaker potency in that assay. `O=C(c1ccc(CN2CCOCC2)cc1)N1CCN(c2ccc3c(c2)OCO3)CC1`: the IC50 with NCI-H1299 [1] was above 100 µM. Further, the inhibition entry in [2] was “Active”.
Consider `Cc1ccc(N2CCN(C(=O)c3ccc(C[Se]C#N)cc3)CC2)cc1`, for which, in assay [2], the inhibition entry was “inactive”.
With `Cc1ccc(N2CCN(C(=O)c3ccc(Cn4cc(CO)c5ccccc54)cc3)CC2)cc1`, 2.5 µM corresponded to half-maximal inhibition with NCI-H1299 [1] (IC50). Also, the inhibition entry (in assay [2]; in the assay with NCI-H1299 [3]) was “Active” throughout.
With `O=C(c1ccc(Cn2cnnn2)cc1)N1CCCC(Nc2ccc3c(c2)OCO3)C1` (centres undefined), the IC50 in the assay with NCI-H1299 [1] was 10 µM. Also, the inhibition result in assay [2] was “Active”.
With `O=C(c1ccc(CN2CCCC2)cc1)N1CCN(c2ccc3c(c2)OCO3)CC1`, the IC50 in the assay on NCI-H1299 [1] was above 100 µM. The inhibition entry in assay [2] is “Active”.
For `O=C(c1ccc(Cn2cnc([N+](=O)[O-])n2)cc1)N1CCCC(Nc2ccc3c(c2)OCO3)C1` (centres undefined), in that order: 20 µM and “Active”.
Regarding `O=C(c1ccc(Cn2cncn2)cc1)N1CCN(c2ccc3c(c2)OCO3)CC1`, in assay [2], the inhibition result was “inactive”.
On the same count and under the same terms, for `O=C(c1ccc(CN2CCCC2)cc1)N1CCCC(Nc2ccc3c(c2)OCO3)C1` (centres undefined) the value was “Active”.
A word on the Kd: it is the equilibrium constant for the complex coming apart. As for `O=C(c1ccc(Cn2cc(CO)c3ccccc32)cc1)N1CCN(c2ccc3c(c2)OCO3)CC1`, inhibition in the assay with NCI-H1299 [1] was half-maximal at 0.7 µM (IC50). For the same compound, the inhibition result in the assay with NCI-H1299 [3], in the assay on LKR-M cell [4] and in the assay with SW480 [15] was “Active” in each case. Further, the inhibition result with LKR-M cell [5] and in the assay with SW480 [16] was “inactive” in each case. In addition, the dissociation constant Kd in assay [6] is 0.84 µM. Moreover, the Activity entry with LKR-M cell [7], in the assay with NCI-H1299 [10], with HCT-116 [12], in the assay on SW480 [13] and in the assay on HCT-116 [14] was “Dose-Dependent Effect” each time. The result in the assay with LKR-M cell [8] and in the assay on RKO was inactive. Moreover, the outcome with LKR-M cell [9] and in the assay on NCI-H1299 [11] was Active.
Regarding `Cc1ccc(N2CCN(C(=O)c3ccc(CN4CCCC4)cc3)CC2)cc1`, the inhibition result in assay [2] is “inactive”.
Same read-out and setting: for `O=C(c1ccc(CN2CCOCC2)cc1)N1CCCC(Nc2ccc3c(c2)OCO3)C1` (centres undefined) the value was “Active”.
On to `Cc1ccc(N2CCN(C(=O)c3ccc(Cn4cnc([N+](=O)[O-])n4)cc3)CC2)cc1`, for which the midpoint of inhibition in the assay with NCI-H1299 [1], the IC50, lay at 8 µM. Also, the inhibition entry (in [2]; with NCI-H1299 [3]) was “Active” each time.
Turning to `Cc1ccc(N2CCN(C(=O)c3ccc(Cn4cncn4)cc3)CC2)cc1`, the inhibition entry in assay [2] is “inactive”.
Same read-out and setting: next, `Cc1ccc(N2CCN(C(=O)c3ccc(CNC(N)=S)cc3)CC2)cc1`: “inactive”; `O=C(c1ccc(Cn2cnc([N+](=O)[O-])n2)cc1)N1CCN(c2ccc3c(c2)OCO3)CC1`: “inactive”; `O=C(c1ccc(Cn2cncn2)cc1)N1CCCC(Nc2ccc3c(c2)OCO3)C1` (centres undefined): “Active”.
`NC(=S)NCc1ccc(C(=O)N2CCN(c3ccc4c(c3)OCO4)CC2)cc1` had a half-maximal inhibitory concentration (IC50) with NCI-H1299 [1] of 4.5 µM. Besides, the inhibition result (in [2]; in the assay with NCI-H1299 [3]) was “Active” throughout.
As to `Cc1ccc(N2CCN(C(=O)c3ccc(Cn4cnnn4)cc3)CC2)cc1`, the inhibition result in assay [2] was “inactive”.
Same read-out and setting: for `O=C(c1ccc(Cn2ccnc2)cc1)N1CCCC(Nc2ccc3c(c2)OCO3)C1` (centres undefined) the value was “Active”.
In the assay with NCI-H1299 [1], `NC(=S)NCc1ccc(C(=O)N2CCCC(Nc3ccc4c(c3)OCO4)C2)cc1` (centres undefined) registered a concentration for half-maximal inhibition (IC50) of 30 µM. The inhibition entry in assay [2] was “Active”.
For `O=C(c1ccc(Cn2ccnc2)cc1)N1CCN(c2ccc3c(c2)OCO3)CC1`, the inhibition result in [2] is “inactive”.
With `Cc1ccc(N2CCN(C(=O)c3ccc(Cn4ccnc4)cc3)CC2)cc1`, the inhibition entry in [2] is “inactive”.
The compound `N#C[Se]Cc1ccc(C(=O)N2CCCC(Nc3ccc4c(c3)OCO4)C2)cc1` (centres undefined) gave a 50% inhibitory concentration (IC50) in the assay with NCI-H1299 [1] of 10 µM. Also, the inhibition entry (in [2]; in the assay on NCI-H1299 [3]) was “Active” throughout.
Regarding `N#C[Se]Cc1ccc(C(=O)N2CCN(c3ccc4c(c3)OCO4)CC2)cc1`, the inhibition result in assay [2] is “inactive”.
Regarding `O=C(c1ccc(Cn2cnnn2)cc1)N1CCN(c2ccc3c(c2)OCO3)CC1`, the inhibition entry in [2] is “inactive”.
Still for that read-out and setting: next, `Cc1ccc(N2CCN(C(=O)c3ccc(CN4CCOCC4)cc3)CC2)cc1`: “inactive”.

The record behind these values is ChEMBL document CHEMBL5532648, “Development of a specific and potent IGF2BP1 inhibitor: A promising therapeutic agent for IGF2BP1-expressing cancers” (Eur J Med Chem, 2024).
